Data set [1] concerns M1-type tumor-associated macrophage (CD45+F4/80+CD86+). Nature of the data set: Flow cytometry of tumor tissue, M1-type TAM. Format: in vivo, mouse. As to conditions: MEL vs PBS and dKLA groups; MEL-dKLA vs MEL group. The procedure:
More specifically, the tumor cells were thinly crushed and separated from each other in DMEM to which DNasel (1 U/mL) and collagenase D (1 mg/mL) were added. The tissue was gently agitated for 1 hour at 37° C., and separated using a […] nylon mesh filter. Red blood cells were dissolved in Phrmlyse buffer (BE bioscience). Individual cells passed through a 40-μm nylon mesh filter and then were stained with following antibodies: CD4+ T cell (CD45+CD4+CD8−), CD8+ T cell (CD45+CD4−CD8+), Foxp3+ regulatory T cell (CD4+CD25+Foxp3+), dendritic cell (CD45+CD11b+CD11c+), and M1 (CD45+F4/80+CD86+) or M2 macrophage (CD45+F4/80+CD206+): anti-CD45-FITC, anti-CD4-phycoerythrin (PE), anti-CD8-allophycocyanin (APC), anti-CD4-FITC, anti-CD25-PE, anti-Foxp3-Alexa Fluor647, anti-CD11b-APC, anti-CD11c-APCcy7, anti-Grl-PEcy7, anti-CD86-PEcy7, and anti-CD206-APC antibodies. Annexin-V was previously treated to measure the cell percentage of macrophages.
Background: In flow cytometry, cells or beads pass a laser one at a time.

The nature of data set [2]: MTS cell viability assay, M2-type macrophage. Format: cell-based, mouse. As to conditions: mouse, M2 macrophage, 0.6 to 0.5 μM, reaction for 24 hours. As for the experimental part:
(§1) More specifically, dKLA (SEQ ID NO: 2), MEL (SEQ ID NO: 1), MEL-dKLA (SEQ ID NO: 3; […]-d[KLAKLAKKLAKLAK]) peptide and 5-carboxyl tetramethylrhodamine (TMR)-conjugated dKLA, MEL and MEL-KLA peptides were purchased from GenScript (Piscataway, N.J., USA). TMR was conjugated with the amino group located at the N-terminal of the peptide. Regarding all of the peptides, 95% or greater purified peptides were used. Murine Lewis lung carcinoma (LLC) cells and macrophage RAW264.7 of mice were cultured in Dulbecco's modified Eagle's medium (DMEM; Welgene, Korea) to which 10% heat-inactivated fetal bovine serum (Welgene), 100 U/mL penicillin and 100 μg/mL streptomycin (Invitrogen, CA, USA) were added. Macrophage (RAW264.7) differentiated into M2-type was treated with IL-4 and IL-13 in the medium for 24 hours. After the treatment, the cells were cultured in a state in which serum was insufficient for 48 hours. M1-type macrophage was treated with 1 ng/mL of LPS for 24 hours to induce differentiation.
(§2) The cell viability test was measured via the MTS assay. RAW264.7 macrophage was differentiated into M1-type or M2-type macrophage which was inoculated onto a 96-well plate at 3×10^4 cells/well. The next day, the macrophage was treated with each of PBS, dKLA, MEL and MEL-dKLA. After 24 hours, the culture solution was replaced and the cell was treated with 20 μL MTS reaction solution (Promega, WI, USA), followed by reaction at 37° C. Then, […] was measured at 490 nm to measure cell viability.
(§3) The MEL-DM1 anticancer drug conjugation method and cell test method are as described above.
(In general: Tetrazolium dyes change colour on reduction, which living cells bring about.)

Data set [3] has as its system M2 macrophage (RAW264.7 differentiated into M2-type with IL-4 and IL-13). Description: MTS cell viability assay, M2-type macrophage. As to conditions: 24 hours, read-out: half-maximal inhibitory concentration (IC50) against M2 macrophage. Format: cell-based, mouse. As for the experimental part: as §1, §2, §3
Data set [4] in a line: MTS cell viability assay, M1-type macrophage. The data set is classed as cell-based. The following applies: mouse, RAW264.7 macrophages differentiated into M1-type with LPS, 0.6 to 0.8 μM. As for the experimental part:
as §1
The cell viability test was measured via the MTS assay. RAW264.7 macrophage was differentiated into M1-type or M2-type macrophage which was inoculated onto a 96-well plate at 3×10^4 cells/well. The next day, the macrophage was treated with each of PBS, dKLA, MEL and MEL-dKLA. […] Then, fluorescence was measured at 490 nm to measure cell viability.

In data set [5] the test system is CD31+ endothelial cells of LLC tumors. Nature of the data set: CD31 immunofluorescence staining of tumor endothelial cells. The data set is classed as in vivo, mouse. The following applies: LLC tumor sections. From the text:
CD31 (PECAM-1) is […] the vascular endothelium, and is well-known as a marker that may indicate angiogenesis. The angiogenesis in tumors is essential means to supply oxygen and nutrients to areas at a low oxygen level in the tumor and thus is closely related to cancer growth and metastasis. M2-type macrophages are major precursors of angiogenic factors, and contain cyclooxygenase-2, matrix metalloproteinase-9 and VEGF. The density of macrophage is related to angiogenesis. Therefore, immunostaining was performed and a confocal device was used to identify whether a decrease in the M2-type tumor-associated macrophage (TAM) in a tumor causes a decrease in angiogenesis.
More specifically, the tissue was […] with paraformaldehyde for 24 hours. Then, the tissue was cut into sections having 4 μm thickness using a rotary microtome, which in turn was restored via autoclaving under pressure for 1 minute with tri-sodium citrate buffer. […] After the staining, the sections were mounted on and analyzed using a laser scanning confocal microscope (Carl Zeiss). All images are taken using LSMS PASCAL, and fluorescence values were analyzed using ImageJ software.

By viability is commonly meant the share of living cells, or the viability signal relative to a control. Lower therefore signals more harm to the cells. With `CC[C@H](C)[C@H](NC(=O)CN)C(=O)NCC(=O)N[C@@H](C)C(=O)N[C@H](C(=O)N[C@@H](CC(C)C)C(=O)N[C@@H](CCCCN)C(=O)N[C@H](C(=O)N[C@@H](CC(C)C)C(=O)N[C@H](C(=O)N[C@H](C(=O)NCC(=O)N[C@@H](CC(C)C)C(=O)N1CCC[C@H]1C(=O)N[C@@H](C)C(=O)N[C@@H](CC(C)C)C(=O)N[C@H](C(=O)N[C@@H](CO)C(=O)N[C@@H](Cc1c[nH]c2ccccc12)C(=O)N[C@H](C(=O)N[C@@H](CCCCN)C(=O)N[C@@H](CCCNC(=N)N)C(=O)N[C@@H](CCCCN)C(=O)N[C@@H](CCCNC(=N)N)C(=O)N[C@@H](CCC(N)=O)C(=O)N[C@@H](CCC(N)=O)C(N)=O)[C@@H](C)CC)[C@@H](C)CC)[C@@H](C)O)[C@@H](C)O)C(C)C)C(C)C` [MEL], the “F480+ CD86+ M1-type tumor-associated macrophage in tumor” value in data set [1] is “slightly increased”. Also, the viability at 24 h in data set [2] is 71 to 79%; in data set [4] it was 74%. Also, in data set [3], the IC50 was in the range of 0.6 to 0.8 µM. Besides, the “CD31+ endothelial cells (blood vessel density)” value in data set [5] is “significant decrease”.

Values taken from US11484601B2, “Targeting M2-like tumor-associated macrophages by using melittin-based proapoptotic peptide” (TWI[…]., priority 2018, dated 2022).
